# Measurements taken from ChEMBL document CHEMBL3352227, “Synthesis, antimycobacterial and antibacterial evaluation of l-[(1R, 2S)-2-fluorocyclopropyl]fluoroquinolone derivatives containing an oxime functional moiety” (Eur J Med Chem, 2014).
# Experiments:
# Staphylococcus aureus [1] = assay: Antibacterial activity against methicillin-sensitive Staphylococcus aureus 12-1 after 18 to 24 hrs by standard twofold serial dilution method; format: functional
# Streptococcus pneumoniae [2] = assay: Antibacterial activity against Streptococcus pneumoniae ATCC 49619 after 18 to 24 hrs by standard twofold serial dilution method; format: functional
# [3] = tested on: Staphylococcus epidermidis; assay: Antibacterial activity against methicillin-sensitive Staphylococcus epidermidis 12-6 after 18 to 24 hrs by standard twofold serial dilution method; format: functional
# Pseudomonas aeruginosa [4] = assay: Antibacterial activity against Pseudomonas aeruginosa 12-12 after 18 to 24 hrs by standard twofold serial dilution method; format: functional
# [5] = tested on: Staphylococcus epidermidis; assay: Antibacterial activity against methicillin-sensitive Staphylococcus epidermidis 12-1 after 18 to 24 hrs by standard twofold serial dilution method; format: functional
# Escherichia coli [6] = assay: Antibacterial activity against extended-spectrum beta-lactamase producing Escherichia coli 12-15 after 18 to 24 hrs by standard twofold serial dilution method; format: functional
# [7] = tested on: Staphylococcus epidermidis; assay: Antibacterial activity against methicillin-sensitive Staphylococcus epidermidis 12-3 after 18 to 24 hrs by standard twofold serial dilution method; format: functional
# Klebsiella pneumoniae [8] = assay: Antibacterial activity against extended-spectrum beta-lactamase producin Klebsiella pneumoniae 12-4 after 18 to 24 hrs by standard twofold serial dilution method; format: functional
# Escherichia coli [9] = assay: Antibacterial activity against extended-spectrum beta-lactamase producing Escherichia coli 12-3 after 18 to 24 hrs by standard twofold serial dilution method; format: functional
# Staphylococcus aureus [10] = assay: Antibacterial activity against methicillin-sensitive Staphylococcus aureus 12-4 after 18 to 24 hrs by standard twofold serial dilution method; format: functional
# Streptococcus pneumoniae [11] = assay: Antibacterial activity against Streptococcus pneumoniae 12-18 after 18 to 24 hrs by standard twofold serial dilution method; format: functional
# Escherichia coli [12] = assay: Antibacterial activity against Escherichia coli ATCC 25922 after 18 to 24 hrs by standard twofold serial dilution method; format: functional
# Klebsiella pneumoniae [13] = assay: Antibacterial activity against Klebsiella pneumoniae 12-2 after 18 to 24 hrs by standard twofold serial dilution method; format: functional
# [14] = tested on: Staphylococcus epidermidis; assay: Antibacterial activity against methicillin-sensitive Staphylococcus epidermidis 12-8 after 18 to 24 hrs by standard twofold serial dilution method; format: functional
# Klebsiella pneumoniae [15] = assay: Antibacterial activity against extended-spectrum beta-lactamase producin Klebsiella pneumoniae 12-14 after 18 to 24 hrs by standard twofold serial dilution method; format: functional
# [16] = tested on: Staphylococcus epidermidis; assay: Antibacterial activity against methicillin-resistant Staphylococcus epidermidis 12-6 after 18 to 24 hrs by standard twofold serial dilution method; format: functional
# Staphylococcus aureus [17] = assay: Antibacterial activity against methicillin-resistant Staphylococcus aureus 12-4 after 18 to 24 hrs by standard twofold serial dilution method; format: functional
# Klebsiella pneumoniae [18] = assay: Antibacterial activity against extended-spectrum beta-lactamase producin Klebsiella pneumoniae 12-7 after 18 to 24 hrs by standard twofold serial dilution method; format: functional
# Staphylococcus aureus [19] = assay: Antibacterial activity against Staphylococcus aureus ATCC 25923 after 18 to 24 hrs by standard twofold serial dilution method; format: functional
# [20] = tested on: Staphylococcus epidermidis; assay: Antibacterial activity against methicillin-resistant Staphylococcus epidermidis 12-1 after 18 to 24 hrs by standard twofold serial dilution method; format: functional
# Escherichia coli [21] = assay: Antibacterial activity against Escherichia coli 12-1 after 18 to 24 hrs by standard twofold serial dilution method; format: functional
# Staphylococcus aureus [22] = assay: Antibacterial activity against methicillin-resistant Staphylococcus aureus 12-5 after 18 to 24 hrs by standard twofold serial dilution method; format: functional
# Pseudomonas aeruginosa [23] = assay: Antibacterial activity against Pseudomonas aeruginosa 12-14 after 18 to 24 hrs by standard twofold serial dilution method; format: functional
# Staphylococcus aureus [24] = assay: Antibacterial activity against methicillin-sensitive Staphylococcus aureus 12-5 after 18 to 24 hrs by standard twofold serial dilution method; format: functional
# Klebsiella pneumoniae [25] = assay: Antibacterial activity against Klebsiella pneumoniae 12-4 after 18 to 24 hrs by standard twofold serial dilution method; format: functional
# Escherichia coli [26] = assay: Antibacterial activity against extended-spectrum beta-lactamase producing Escherichia coli 12-2 after 18 to 24 hrs by standard twofold serial dilution method; format: functional
# Staphylococcus aureus [27] = assay: Antibacterial activity against methicillin-resistant Staphylococcus aureus 12-2 after 18 to 24 hrs by standard twofold serial dilution method; format: functional
# Klebsiella pneumoniae [28] = assay: Antibacterial activity against extended-spectrum beta-lactamase producin Klebsiella pneumoniae 12-3 after 18 to 24 hrs by standard twofold serial dilution method; format: functional
# Klebsiella pneumoniae [29] = assay: Antibacterial activity against Klebsiella pneumoniae 12-1 after 18 to 24 hrs by standard twofold serial dilution method; format: functional
# Escherichia coli [30] = assay: Antibacterial activity against extended-spectrum beta-lactamase producing Escherichia coli 12-14 after 18 to 24 hrs by standard twofold serial dilution method; format: functional
# [31] = tested on: Mycobacterium tuberculosis; assay: Antimycobacterial activity against Mycobacterium tuberculosis H37Rv ATCC 27294 by MABA method; format: functional
# Staphylococcus aureus [32] = assay: Antibacterial activity against methicillin-sensitive Staphylococcus aureus 12-2 after 18 to 24 hrs by standard twofold serial dilution method; format: functional
# [33] = Solubility of the compound; format: physicochemical
# Escherichia coli [34] = assay: Antibacterial activity against Escherichia coli 12-1 infected in mouse dosed orally twice at 0 and 6 hrs after infection; format: functional; conditions: 12-1, po
# Staphylococcus aureus [35] = assay: Antibacterial activity against methicillin-sensitive Staphylococcus aureus 12-1 infected in mouse dosed orally twice at 0 and 6 hrs after infection; format: functional; conditions: 12-1, po
SMILES,MIC (Staphylococcus aureus [1]) [µg/mL],MIC (Streptococcus pneumoniae [2]) [µg/mL],MIC [3] [µg/mL],MIC (Pseudomonas aeruginosa [4]) [µg/mL],MIC [5] [µg/mL],MIC (Escherichia coli [6]) [µg/mL],MIC [7] [µg/mL],MIC (Klebsiella pneumoniae [8]) [µg/mL],MIC (Escherichia coli [9]) [µg/mL],MIC (Staphylococcus aureus [10]) [µg/mL],MIC (Streptococcus pneumoniae [11]) [µg/mL],MIC (Escherichia coli [12]) [µg/mL],MIC (Klebsiella pneumoniae [13]) [µg/mL],MIC [14] [µg/mL],MIC (Klebsiella pneumoniae [15]) [µg/mL],MIC [16] [µg/mL],MIC (Staphylococcus aureus [17]) [µg/mL],MIC (Klebsiella pneumoniae [18]) [µg/mL],MIC (Staphylococcus aureus [19]) [µg/mL],MIC [20] [µg/mL],further results
CO/N=C1/CCN(c2cc3c(cc2F)c(=O)c(C(=O)O)cn3[C@@H]2C[C@@H]2F)CC1N (some centres undefined),0.5,1,0.5,4,0.5,> 128,1,16,16,0.5,2,0.25,1,2,> 128,2,128,4,0.5,8,MIC (Escherichia coli [21]): 2 µg/mL; MIC (Staphylococcus aureus [22]): 64 µg/mL; MIC (Pseudomonas aeruginosa [23]): 32 µg/mL; MIC (Staphylococcus aureus [24]): 0.5 µg/mL; MIC (Klebsiella pneumoniae [25]): 1 µg/mL; MIC (Escherichia coli [26]): > 128 µg/mL; MIC (Staphylococcus aureus [27]): 64 µg/mL; MIC (Klebsiella pneumoniae [28]): > 128 µg/mL; MIC (Klebsiella pneumoniae [29]): 2 µg/mL; MIC (Escherichia coli [30]): 128 µg/mL; MIC [31]: 1 µg/mL; MIC (Staphylococcus aureus [32]): 0.5 µg/mL
CO/N=C1/CN(c2cc3c(cc2F)c(=O)c(C(=O)O)cn3[C@@H]2C[C@@H]2F)CC1CN (some centres undefined),0.125,0.03,0.125,2,0.06,128,0.06,16,32,0.06,0.25,0.03,0.25,0.25,64,0.125,4,1,< 0.008,2,MIC (Escherichia coli [21]): 0.25 µg/mL; MIC (Staphylococcus aureus [22]): 8 µg/mL; MIC (Pseudomonas aeruginosa [23]): 2 µg/mL; MIC (Staphylococcus aureus [24]): 0.125 µg/mL; MIC (Klebsiella pneumoniae [25]): 0.25 µg/mL; MIC (Escherichia coli [26]): 128 µg/mL; MIC (Staphylococcus aureus [27]): 16 µg/mL; MIC (Klebsiella pneumoniae [28]): 32 µg/mL; MIC (Klebsiella pneumoniae [29]): 0.25 µg/mL; MIC (Escherichia coli [30]): 32 µg/mL; MIC [31]: 1 µg/mL; MIC (Staphylococcus aureus [32]): 0.125 µg/mL
NCC1CN(c2nc3c(cc2F)c(=O)c(C(=O)O)cn3[C@@H]2C[C@@H]2F)C/C1=N/OCc1ccccc1 (some centres undefined),< 0.008,0.03,< 0.008,1,< 0.008,128,< 0.008,16,16,< 0.008,0.25,< 0.008,0.125,0.125,32,2,2,1,< 0.008,0.25,solubility [33]: 240 µg/mL; ED50 (Escherichia coli [34]): 18 mg/kg; MIC (Escherichia coli [21]): 0.125 µg/mL; MIC (Staphylococcus aureus [22]): 1 µg/mL; MIC (Pseudomonas aeruginosa [23]): 1 µg/mL; MIC (Staphylococcus aureus [24]): < 0.008 µg/mL; MIC (Klebsiella pneumoniae [25]): 0.06 µg/mL; MIC (Escherichia coli [26]): 64 µg/mL; MIC (Staphylococcus aureus [27]): 1 µg/mL; ED50 (Staphylococcus aureus [35]): 16.9 mg/kg; MIC (Klebsiella pneumoniae [28]): 16 µg/mL; MIC (Klebsiella pneumoniae [29]): 0.03 µg/mL; MIC (Escherichia coli [30]): 16 µg/mL; MIC [31]: 0.5 µg/mL; MIC (Staphylococcus aureus [32]): < 0.008 µg/mL
